ChEMBL document CHEMBL1122736, “Replacement of the peptide-backbone amides connecting Tyr-Gly and Gly-Gly in leucine-enkephalin with ketomethylene groups: synthesis and biological activity” (J Med Chem, 1984)

Columns and labels:
Mus musculus [1] = assay: Analgesic activity in mice by tail-flick test after intracerebroventricular administration at a dose of 48 ug/mouse after time duration of 4 minutes; no of mice survived / total no of mice tested-3; format: functional
Mus musculus [2] = assay: Analgesic activity in mice by tail-flick test after intracerebroventricular administration at a dose of 60 ug/mouse after time duration of 4 minutes; no of mice survived / total no of mice tested-3; format: functional
Mus musculus [3] = assay: Analgesic activity in mice by tail-flick test after intracerebroventricular administration at a dose of 60 ug/mouse after time duration of 8 minutes; no of mice survived / total no of mice tested-3; format: functional
[4] = target: Opioid receptor (Rattus norvegicus); assay: Concentration required to inhibit the specific binding of tritiated ligand [3H]DADL to opiate receptor by 50%
Mus musculus [5] = assay: Analgesic activity in mice by tail-flick test after intracerebroventricular administration at a dose of 60 ug/mouse after time duration of 2 minutes; no of mice survived / total no of mice tested-2; format: functional
Mus musculus [6] = assay: Analgesic activity in mice by tail-flick test after intracerebroventricular administration at a dose of 24.3 ug/mouse after time duration of 2 minutes; no of mice survived / total no of mice tested-12; format: functional
Mus musculus [7] = assay: Analgesic activity in mice by tail-flick test after intracerebroventricular administration at a dose of 40 ug/mouse after time duration of 4 minutes; no of mice survived / total no of mice tested-3; format: functional
Mus musculus [8] = assay: Analgesic activity in mice by tail-flick test after intracerebroventricular administration at a dose of 12.2 ug/mouse after time duration of 2 minutes; no of mice survived / total no of mice tested-12; format: functional
Mus musculus [9] = assay: Analgesic activity in mice by tail-flick test after intracerebroventricular administration at a dose of 40 ug/mouse after time duration of 2 minutes; no of mice survived / total no of mice tested-2; format: functional
[10] = target: Opioid receptor (Rattus norvegicus); assay: Concentration required to inhibit the specific binding of tritiated ligand [3H]naloxone to opiate receptor by 50%
Mus musculus [11] = assay: Analgesic activity in mice by tail-flick test after intracerebroventricular administration at a dose of 40 ug/mouse after time duration of 8 minutes; no of mice survived / total no of mice tested-3; format: functional
Mus musculus [12] = assay: Analgesic activity in mice by tail-flick test after intracerebroventricular administration at a dose of 48 ug/mouse after time duration of 8 minutes; no of mice survived / total no of mice tested-3; format: functional
Mus musculus [13] = assay: Analgesic activity in mice by tail-flick test after intracerebroventricular administration at a dose of 48 ug/mouse after time duration of 2 minutes; no of mice survived / total no of mice tested-2; format: functional
Mus musculus [14] = assay: Analgesic activity in mice by tail-flick test after intracerebroventricular administration at a dose of 240 ug/mouse after time duration of 2 minutes; no of mice survived / total no of mice tested-6; format: functional

`CC(C)CC(NC(=O)C(Cc1ccccc1)NC(=O)CCC(=O)CCC(=O)C(N)Cc1ccc(O)cc1)C(=O)O` (centres undefined) was tested, and the Analgesic response (Mus musculus [1]) was 1, the Analgesic response (Mus musculus [2]) was 1 and the Analgesic response (Mus musculus [3]) was 0. It also gave an IC50 [4] of 33 µM, an Analgesic response (Mus musculus [5]) of 1 and an Analgesic response (Mus musculus [6]) of 6. For the same molecule, the Analgesic response (Mus musculus [7]) was 1, the Analgesic response (Mus musculus [8]) was 2 and the Analgesic response (Mus musculus [9]) was 1. For the same molecule, the IC50 [10] was 180 µM, the Analgesic response (Mus musculus [11]) was 0 and the Analgesic response (Mus musculus [12]) was 0. The Analgesic response (Mus musculus [13]) was 1.

In the case of `CC(C)C[C@@H](NC(=O)[C@H](Cc1ccccc1)NC(=O)CNC(=O)[C@@H](C)NC(=O)[C@@H](N)Cc1ccc(O)cc1)C(=O)O` [DADLE], the Analgesic response (Mus musculus [14]) is reported as 4.
